Two molecules from BindingDB's records for patent US9150581 (Research Triangle Institute, 2015) can be followed below.

pKi: −log10 of the molar value.

In the test the target is Isoform Alpha-4-2 of Neuronal acetylcholine receptor subunit alpha-4 (Alpha-4-2) (Rattus norvegicus, UniProt P09483). The test is described as follows: Inhibition Assay.
Isoform Alpha-4-2 of Neuronal acetylcholine receptor subunit alpha-4 (Alpha-4-2), sequence (P09483 as listed by the source): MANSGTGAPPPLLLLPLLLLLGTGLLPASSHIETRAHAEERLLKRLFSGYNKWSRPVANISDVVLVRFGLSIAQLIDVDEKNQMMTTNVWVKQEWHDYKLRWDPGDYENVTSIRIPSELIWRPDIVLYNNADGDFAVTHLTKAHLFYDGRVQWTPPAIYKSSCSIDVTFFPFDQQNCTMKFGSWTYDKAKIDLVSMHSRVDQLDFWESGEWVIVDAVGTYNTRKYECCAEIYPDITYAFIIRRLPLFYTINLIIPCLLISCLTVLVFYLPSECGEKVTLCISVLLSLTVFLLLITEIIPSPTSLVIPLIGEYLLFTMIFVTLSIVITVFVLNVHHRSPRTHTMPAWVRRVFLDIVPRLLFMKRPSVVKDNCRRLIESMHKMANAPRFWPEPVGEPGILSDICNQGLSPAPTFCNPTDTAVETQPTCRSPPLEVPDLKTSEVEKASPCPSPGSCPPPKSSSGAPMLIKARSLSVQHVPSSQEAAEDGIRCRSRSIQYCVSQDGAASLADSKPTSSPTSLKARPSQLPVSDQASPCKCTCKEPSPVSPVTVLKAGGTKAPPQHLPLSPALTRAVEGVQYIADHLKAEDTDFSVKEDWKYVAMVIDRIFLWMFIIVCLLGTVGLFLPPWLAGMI

For the molecule `Fc1ncc(C2CC3CCC2N3)cc1-c1cccc(Cl)c1` (racemic) [US9150581, RTI-7527-98], the negative-log Ki (pKi) (usually the negative decadic logarithm of the Ki, by convention in mol/L) is 10.14.

As to `Fc1ncc(C2CC3CCC2N3)cc1-c1ccccc1` (stereo not drawn) [US9150581, RTI-7527-(-)-47], the pKi is 9.59.
